The values below come from article PMC2772170 (Journal of medicinal chemistry, 2009).

Data set [1] deals with ex vivo worms in culture. In words: Ex vivo parasite killing, visual examination of cultured worms. The arrangement: species or system Schistosoma. Particulars: 10 μM compound, cultured worms.
Data set [2] addresses T1, TGR (Schistosoma mansoni, UniProt Q962Y6).
T1 sequence (Q962Y6 1-598): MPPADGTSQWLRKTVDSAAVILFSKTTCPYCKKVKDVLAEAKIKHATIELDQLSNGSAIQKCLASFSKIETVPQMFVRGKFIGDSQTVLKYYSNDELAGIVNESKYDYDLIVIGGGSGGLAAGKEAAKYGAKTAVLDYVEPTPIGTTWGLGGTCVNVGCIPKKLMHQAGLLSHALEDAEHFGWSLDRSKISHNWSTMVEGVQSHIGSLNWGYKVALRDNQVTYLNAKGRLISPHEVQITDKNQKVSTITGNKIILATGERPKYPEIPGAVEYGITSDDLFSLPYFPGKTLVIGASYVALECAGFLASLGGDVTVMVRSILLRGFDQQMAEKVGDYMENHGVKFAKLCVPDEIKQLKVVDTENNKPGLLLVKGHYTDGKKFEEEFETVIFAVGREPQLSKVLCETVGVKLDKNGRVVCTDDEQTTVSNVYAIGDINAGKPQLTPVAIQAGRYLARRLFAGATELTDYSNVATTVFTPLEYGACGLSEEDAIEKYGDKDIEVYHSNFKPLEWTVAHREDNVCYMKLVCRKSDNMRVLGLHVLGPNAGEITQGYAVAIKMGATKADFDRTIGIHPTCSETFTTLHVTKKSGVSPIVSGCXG
Conditions: cited from earlier work.

The conditions of data set [3]: ABTS oxidation; cited from earlier work.
Data set [4] concerns the target T1, TGR. It counts as biochemical. Particulars: with TGR; ABTS method, data in supporting information.
The nature of data set [5]: Caco-2 permeability. Particulars: human. (Passage across Caco-2 layers is used to estimate intestinal permeability.)
A short description of data set [6]: Microsomal stability. Particulars: human liver microsomes, 60 minutes at 37 °C.

The structures appear in SMILES notation.

Take `O=C(c1cccs1)c1no[n+]([O-])c1C(=O)c1cccs1` [Analogue 3, bis(thiophen-2-ylmethanone)-furoxan]: in data set [1], the “Ex Vivo Parasite Killing 2 hr” value is “n.e”, the “Ex Vivo Parasite Killing 4 hr” value is “n.e”, the “Ex Vivo Parasite Killing 48 hr” value is reported as “n.e” and the “Ex Vivo Parasite Killing 72 hr” value is “n.e”. The “Ex Vivo Parasite Killing 8 hr” value in data set [1] (8 hr) is recorded as “n.e”. Also, the “Ex Vivo Parasite Killing 16 hr” value in data set [1] (16 hr) is “n.e”. The “Ex Vivo Parasite Killing 24 hr” value in data set [1] (24 hr) is “n.e”. Also, the “NO generation in the presence of TGR/NADPH” value in data set [2] is given as “not in the presence of TGR/NADPH”. Besides, the “NO generation in the presence of cysteine” value in data set [3] is given as “capable of NO generation in the presence of cysteine”.

With `N#Cc1c(-c2cccs2)no[n+]1[O-]` [Analogue 29], in data set [1], the “Ex Vivo Parasite Killing 2 hr” value is given as “n.e”, the “Ex Vivo Parasite Killing 4 hr” value is recorded as “n.e”, the “Ex Vivo Parasite Killing 48 hr” value was 100%D and the “Ex Vivo Parasite Killing 72 hr” value is given as 100%D. In addition, in data set [4], the “NO release / NO donating ability (in words)” value is “good NO release profiles”. For the same compound, the Papp A→B in data set [5] was found to be 8.4 ×10⁻⁶ cm/s. The “Microsomal stability, NADPH (+)” value in data set [6] (with NADPH) worked out at 1 % remaining. The “Microsomal stability, NADPH (−)” value in data set [6] (without NADPH) turned out to be 64 % remaining.

Usually Papp A→B stands for how fast a substance crosses the layer from the apical side. Lower therefore signals slow passage.
